Data published in publication PMC10244465, “Native American ataxia medicines rescue ataxia-linked mutant potassium channel activity via binding to the voltage sensing domain” (Nature Communications, 2023).

Biological target: T1, Kv1.1/Kv1.1-L155P/Kv1.2 channels (Homo sapiens, UniProt Q09470, L155P)
T1 construct: expressed in transfected cells; host or cells: Xenopus laevis oocytes co-injected 1:1:2 Kv1.1:Kv1.1-L155P:Kv1.2 cRNA
Assay: TEVC of oocytes co-injected 1:1:2 Kv1.1:Kv1.1-L155P:Kv1.2 cRNA
Assay type: cell-based
Settings: at 0.1 µM and higher
From the text: Kv1.1 α subunits form heteromeric tetramers with other Kv1 subfamily α subunits, including Kv1.2, in the […] region of axons and some terminals, in the hippocampus (perforant input from entorhinal cortex, mossy fiber projections from granule cells to CA3, and CA3 axon collaterals)[7]–[11]. We therefore tested effects of gallic acid on Kv1.1/Kv1.2 heteromers generated in oocytes by co-injection of 1:1:2 parts Kv1.1:Kv1.1-E283K:Kv1.2 or Kv1.1:Kv1.1-L155P:Kv1.2 cRNA to approximate the Kv1.1/Kv1.2 heteromeric channel composition in EA1 patients heterozygous for either mutant KCNA1 allele. […]
We performed TEVC at room temperature using an OC-725C amplifier (Warner Instruments, Hamden, CT) and pClamp10 software (Molecular Devices, Sunnyvale, CA) 2 days after cRNA injection as described in the section above. […] We recorded currents in response to voltage pulses between −80 mV and +40 mV at 10 or 20 mV intervals from a holding potential of −80 mV, to yield current-voltage relationships and examine activation kinetics. To calculate the voltage dependence of activation (V0.5), tail currents were recorded at a voltage pulse of −50 mV immediately following prepulse voltages between −80 mV and +40 mV. We analyzed data using Clampfit (Molecular Devices) and Graphpad Prism software (GraphPad, San Diego, CA, USA), stating values as mean ± SEM. […]

T1 sequence (Q09470 whole entry, stated change not applied): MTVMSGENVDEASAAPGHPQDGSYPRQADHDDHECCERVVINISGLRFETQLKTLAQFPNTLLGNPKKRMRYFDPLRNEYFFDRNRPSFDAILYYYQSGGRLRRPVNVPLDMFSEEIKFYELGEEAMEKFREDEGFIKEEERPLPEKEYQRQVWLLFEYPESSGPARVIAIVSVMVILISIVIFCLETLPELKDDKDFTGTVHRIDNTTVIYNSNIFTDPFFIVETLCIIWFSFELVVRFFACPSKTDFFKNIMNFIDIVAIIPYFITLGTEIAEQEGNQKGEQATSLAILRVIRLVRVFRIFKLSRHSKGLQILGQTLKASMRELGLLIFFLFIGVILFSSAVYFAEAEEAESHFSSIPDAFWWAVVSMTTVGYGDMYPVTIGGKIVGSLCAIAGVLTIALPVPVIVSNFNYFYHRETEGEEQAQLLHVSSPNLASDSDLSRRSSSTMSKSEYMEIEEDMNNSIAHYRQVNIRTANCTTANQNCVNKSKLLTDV
T1 sequence (Q09470 whole entry L155P): as the sequence (Q09470 whole entry, stated change not applied) above, with L155P counted along it
T1 sequence (P16389 whole entry partner): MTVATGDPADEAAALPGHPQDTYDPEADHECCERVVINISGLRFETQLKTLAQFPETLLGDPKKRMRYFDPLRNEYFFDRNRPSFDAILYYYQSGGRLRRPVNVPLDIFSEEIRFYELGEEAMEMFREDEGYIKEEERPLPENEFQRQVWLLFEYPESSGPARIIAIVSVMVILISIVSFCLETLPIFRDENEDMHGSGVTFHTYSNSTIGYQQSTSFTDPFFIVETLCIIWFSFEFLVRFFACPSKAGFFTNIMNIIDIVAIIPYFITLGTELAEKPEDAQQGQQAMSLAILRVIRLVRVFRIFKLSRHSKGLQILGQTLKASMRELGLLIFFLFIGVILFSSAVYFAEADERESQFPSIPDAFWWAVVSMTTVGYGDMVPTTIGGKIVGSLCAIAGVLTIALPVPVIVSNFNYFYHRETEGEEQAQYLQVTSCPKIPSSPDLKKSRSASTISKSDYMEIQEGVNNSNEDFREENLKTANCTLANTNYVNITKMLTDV

SMILES: O=C(O)c1cc(O)c(O)c(O)c1 [gallic acid]
- rescue of channel activity: highly effective at rescuing
